Laboratory results taken from ChEMBL document CHEMBL4483862, “Open-source discovery of chemical leads for next-generation chemoprotective antimalarials” (2018).

System: Plasmodium berghei
Assay: Luciferase/luciferin-expressing antifolate-resistant parasites were used to infect a culture of HepG2 cells that were pre-incubated with compounds. Infected hepatocytes emit light due to the luciferase reaction. Assay results are presented as the percent inhibition of light emission compared to control. […]
Format: functional
Settings: sporozoite; for IC90: read-out: LUCIFERASE INFECTION ASSAY - IC90
[1] = read-out: LUCIFERASE INFECTION ASSAY - IC50

Compound	IC90	IC50 [1]	further results
CC(=O)Nc1ccc(OCC(=O)NC(c2ccc(C)cc2)c2cccs2)cc1 (configuration not stated)	> 10 µM		IC50 (PBLUC_HILL_SLOPE 2.22, PBLUC_R_SQUARED 0.0478, read-out: LUCIFERASE INFECTION ASSAY - IC50): > 10 µM
O=C(CN1CCN(Cc2ccc(-n3cccn3)cc2)CC1)Nc1ccc(OC(F)(F)F)cc1	> 10 µM	> 10 µM	
COc1cc2c(cc1NC(=O)c1cccc(F)c1)CCCC2	> 11 µM	4.59 µM	
O=C(Nc1nc(-c2ccc(Cl)cc2Cl)cs1)C1CC(=O)N(CCc2ccccc2)C1 (configuration not stated)	> 10 µM		IC50 (FFLUC_HILL_SLOPE 45.5, FFLUC_R_SQUARED 0.597, PBLUC_HILL_SLOPE 12.9, PBLUC_R_SQUARED 0.652, read-out: LUCIFERASE INFECTION ASSAY - IC50): 9.1 µM
O=C(NCCCNc1ccnc2cc(Cl)ccc12)c1ccccc1F	6.19 µM		IC50 (PBLUC_HILL_SLOPE 1.88, PBLUC_R_SQUARED 0.797, read-out: LUCIFERASE INFECTION ASSAY - IC50): 1.93 µM
CCOc1cccc(-c2cn3c(-c4ccc5c(ccn5C)c4)cnc3cn2)c1	0.0637 µM		IC50 (HEPG2TOX_HILL_SLOPE 0.658, HEPG2TOX_R_SQUARED 0.817, PBLUC_HILL_SLOPE 2.41, PBLUC_R_SQUARED 0.611, read-out: LUCIFERASE INFECTION ASSAY - IC50): 0.0256 µM
CC1=NN(c2ccccc2)C(=O)/C1=C\c1c(C)nn(-c2ccccc2)c1Sc1nc2ccccc2s1	> 10 µM		IC50 (PBLUC_HILL_SLOPE 3.11, PBLUC_R_SQUARED 0.577, read-out: LUCIFERASE INFECTION ASSAY - IC50): 6.6 µM
CCOC(=O)c1c(S(=O)(=O)N2CCN(c3ncccc3C(F)(F)F)CC2)c(-c2ccccc2)n(-c2ccccc2)c1C	> 5.51 µM		IC50 (FFLUC_HILL_SLOPE 0.343, FFLUC_R_SQUARED 0.352, PBLUC_HILL_SLOPE 1.97, PBLUC_R_SQUARED 0.72, read-out: LUCIFERASE INFECTION ASSAY - IC50): > 5.51 µM
Cc1cccc(C)c1NC(=O)NCCSCc1c(Cl)cccc1Cl	> 8.61 µM	> 8.61 µM	
CC(C)c1cc(C(C)C)c(S(=O)(=O)Nc2ccc(O)cc2)c(C(C)C)c1	3.98 µM		IC50 (FFLUC_HILL_SLOPE 2.79, FFLUC_R_SQUARED 0.606, PBLUC_HILL_SLOPE 11.9, 14.6, PBLUC_R_SQUARED 0.380, 0.737, read-out: LUCIFERASE INFECTION ASSAY - IC50): 3.36 µM
Clc1ccc(-c2cnc3ccc(NCc4ccc5c(c4)OCO5)nn23)cc1	> 8.71 µM	> 8.71 µM	
CCNc1ccc(C(=O)Nc2ccc3nc(C)sc3c2)cc1[N+](=O)[O-]	> 10 µM		IC50 (HEPG2TOX_HILL_SLOPE 12, HEPG2TOX_R_SQUARED 0.881, PBLUC_HILL_SLOPE 13.1, PBLUC_R_SQUARED 0.554, read-out: LUCIFERASE INFECTION ASSAY - IC50): 8.97 µM
Cc1ccc(Oc2cccc(F)c2C#N)cc1	> 14.5 µM	> 14.5 µM	
CC1CCc2sc(C(=O)N/N=C/c3ccc(Cl)cc3Cl)cc2C1 (configuration not stated)	5.01 µM		IC50 (HEPG2TOX_HILL_SLOPE 2.35, HEPG2TOX_R_SQUARED 0.954, PBLUC_HILL_SLOPE 8.15, PBLUC_R_SQUARED 0.258, read-out: LUCIFERASE INFECTION ASSAY - IC50): 3.82 µM
CNCCCNCc1cccc(OC)c1OCc1ccc(Cl)cc1	> 9.46 µM		IC50 (PBLUC_HILL_SLOPE 9.3, PBLUC_R_SQUARED 0.597, read-out: LUCIFERASE INFECTION ASSAY - IC50): 8.76 µM
O=C(COc1ccccc1SCc1ccc(Cl)cc1)NNC(=O)c1ccccc1Cl	> 7.15 µM	> 7.15 µM	
COc1ccc(-c2ccc3ncc(-c4ccc5c(c4)OCO5)n3n2)cc1OC	1.1 µM		IC50 (HEPG2TOX_HILL_SLOPE 2.06, HEPG2TOX_R_SQUARED 0.96, PBLUC_HILL_SLOPE 2.96, PBLUC_R_SQUARED 0.768, read-out: LUCIFERASE INFECTION ASSAY - IC50): 0.524 µM
Cc1cc2ccccn2c1C(=O)c1cccc2nc3ccccc3nc12	> 10 µM		IC50 (PBLUC_HILL_SLOPE 2.29, PBLUC_R_SQUARED 0.419, read-out: LUCIFERASE INFECTION ASSAY - IC50): 7.29 µM
CCOC(=O)C1=C(CSc2nc(-c3ccc(C)cc3)c(-c3ccc(C)cc3)[nH]2)NC(=O)NC1C (configuration not stated)	> 10 µM	> 10 µM	
CCOCCC(=O)Nc1ccc2c(c1)c(=O)n(C)n2Cc1cccc(C(F)(F)F)c1	> 7.83 µM	> 7.83 µM	
Brc1ccc(OCc2ccccc2)c(CNCc2cccnc2)c1	> 8.61 µM	> 8.61 µM	
O=C(CSc1nnc(-c2ccco2)n1-c1ccc2c(c1)OCCO2)Nc1cc(Cl)cc(Cl)c1	> 6.56 µM	> 6.56 µM	
Cc1ccc2c(Cl)cc(Cl)c(OCN3C(=O)c4ccccc4C3=O)c2n1	5.83 µM		IC50 (PBLUC_HILL_SLOPE 5.8, PBLUC_R_SQUARED 0.551, read-out: LUCIFERASE INFECTION ASSAY - IC50): 3.99 µM

Compound	IC90	IC50 [1]	further results
C=CCn1c[n+](C2=C(NS(=O)(=O)c3ccc(C)cc3)C(=O)c3ccccc3C2=O)c2ccccc21	1.26 µM		IC50 (PBLUC_HILL_SLOPE 2.18, PBLUC_R_SQUARED 0.79, read-out: LUCIFERASE INFECTION ASSAY - IC50): 0.462 µM
CC(C)(C)c1cc(C(=O)OCC(=O)NC(c2ccccc2)c2ccccc2)cc(C(C)(C)C)c1	> 10 µM		IC50 (FFLUC_HILL_SLOPE 15.9, FFLUC_R_SQUARED 0.274, HEPG2TOX_HILL_SLOPE 1.64, HEPG2TOX_R_SQUARED 0.592, PBLUC_HILL_SLOPE 2.07, PBLUC_R_SQUARED 0.325, read-out: LUCIFERASE INFECTION ASSAY - IC50): 7.82 µM
Cc1cccc(OCc2nnnn2-c2ccc(Br)cc2)c1	> 9.56 µM	> 9.56 µM	
CO/N=C/NC(=O)/C(C#N)=C/N(C)C	> 16.8 µM		IC50 (PBLUC_HILL_SLOPE 13.3, PBLUC_R_SQUARED 0.155, read-out: LUCIFERASE INFECTION ASSAY - IC50): 14.6 µM
O=C(Nc1ccc(N2CCOCC2)nc1)c1ccc(S(=O)(=O)N2CCCc3ccccc32)cc1	> 10 µM		IC50 (HEPG2TOX_HILL_SLOPE 1.57, HEPG2TOX_R_SQUARED 0.865, PBLUC_HILL_SLOPE 1.66, PBLUC_R_SQUARED 0.608, read-out: LUCIFERASE INFECTION ASSAY - IC50): 2.98 µM
Cc1cc(C(=O)CN2CCC(C(=O)Nc3ccc4c(c3)OCO4)CC2)c(C)n1Cc1cccs1	> 10 µM		IC50 (FFLUC_HILL_SLOPE 9.45, FFLUC_R_SQUARED 0.378, read-out: LUCIFERASE INFECTION ASSAY - IC50): > 10 µM
Cc1c(C(=O)OCC(=O)N(Cc2ccccc2)Cc2ccccc2)sc2nc3n(c(=O)c12)CCC3	3.43 µM	3.04 µM	
COc1cccc(N/N=C2\C=CC(=O)c3ncccc32)c1	3.47 µM		IC50 (HEPG2TOX_HILL_SLOPE 12.1, HEPG2TOX_R_SQUARED 0.589, PBLUC_HILL_SLOPE 8.94, PBLUC_R_SQUARED 0.612, read-out: LUCIFERASE INFECTION ASSAY - IC50): 2.71 µM
COc1ccc(-c2cc(C3(CNCc4ccc(N(C)C)cc4)CC3)ccn2)cn1	> 10 µM	> 10 µM	
COc1ccccc1C(=O)/C=C/c1ccc(N2CCCCC2)c([N+](=O)[O-])c1	> 10 µM		IC50 (HEPG2TOX_HILL_SLOPE 11.8, HEPG2TOX_R_SQUARED 0.223, read-out: LUCIFERASE INFECTION ASSAY - IC50): > 10 µM
O=C(Nc1ccc2c(c1)OCO2)c1cnc(N2CCN(CCc3ccccc3)C2=O)o1	> 10 µM		IC50 (HEPG2TOX_HILL_SLOPE 7.5, HEPG2TOX_R_SQUARED 0.498, PBLUC_HILL_SLOPE 1.96, PBLUC_R_SQUARED 0.361, read-out: LUCIFERASE INFECTION ASSAY - IC50): 3.61 µM
COc1cccc(CC(=O)N2C[C@H](OC)C[C@H]2C(=O)NCC2CCCCC2)c1	> 8.49 µM	> 8.49 µM	
CSc1nc(C)nc(C)c1C(=O)Nc1nc(-c2ccc3c(c2)CCCC3)cs1	> 10 µM		IC50 (FFLUC_HILL_SLOPE 9.1, FFLUC_R_SQUARED 0.159, read-out: LUCIFERASE INFECTION ASSAY - IC50): > 10 µM
CCCCNC(=S)NN=C(c1ccccc1)c1ccccc1	> 10 µM	> 10 µM	
COC(=O)C1=C(C)N(c2cccc(C(F)(F)F)c2)C(=S)NC1c1ccc(O)c(OC)c1 (configuration not stated)	1.57 µM		IC50 (HEPG2TOX_HILL_SLOPE 1.61, 1.73, HEPG2TOX_R_SQUARED 0.946, 0.571, PBLUC_HILL_SLOPE 8.66, 0.516, PBLUC_R_SQUARED 0.631, 0.614, read-out: LUCIFERASE INFECTION ASSAY - IC50): 0.906 µM
O=C(CN1C(=O)NC2(CCCCC2)C1=O)NC1CCS(=O)(=O)C1 (configuration not stated)	> 10 µM	> 10 µM	
CC(/N=c1\ccccn1C(=O)Nc1ccc(Cl)c(Cl)c1)c1ccco1 (configuration not stated)	9.14 µM	6.62 µM	
COc1ccc(C)cc1CCNc1cc(Cl)nc(N)n1	> 10 µM		IC50 (HEPG2TOX_HILL_SLOPE 10.5, HEPG2TOX_R_SQUARED 0.0746, read-out: LUCIFERASE INFECTION ASSAY - IC50): > 10 µM
Cc1nn(C)c2nc(-c3ccco3)cc(C(=O)Nc3ccnn3Cc3ccc(Cl)cc3Cl)c12	> 10 µM		IC50 (FFLUC_HILL_SLOPE 11.1, FFLUC_R_SQUARED 0.205, read-out: LUCIFERASE INFECTION ASSAY - IC50): > 10 µM
Cn1c(NCc2ccccc2)nc2cnc(Nc3ccc(F)cc3)cc21	> 10 µM	> 10 µM	
O=C(NCc1sccc1Cl)Nc1cccc(Cl)c1	> 11 µM		IC50 (PBLUC_HILL_SLOPE 5.24, PBLUC_R_SQUARED 0.165, read-out: LUCIFERASE INFECTION ASSAY - IC50): 7.24 µM
CN(C)c1ccc(NC(=O)C2(C)CCCCN2C)cc1 (configuration not stated)	> 12 µM		IC50 (PBLUC_HILL_SLOPE 1.77, PBLUC_R_SQUARED 0.752, read-out: LUCIFERASE INFECTION ASSAY - IC50): 6.68 µM
COc1cc(-c2[nH]nc3ccnc(-c4cccc(OC(F)(F)F)c4)c23)cc(OC)c1OC	> 10 µM	> 10 µM	
